Measured values: paper PMC10318822, “Phase 1 dose-escalation study to evaluate the safety, tolerability, pharmacokinetics, and anti-tumor activity of FCN-159 in adults with neurofibromatosis type 1-related unresectable plexiform neurofibromas” (BMC Medicine, 2023)

Tested on: adult patients with NF1-related PN
Assay: Phase I dose-escalation: DLT, MTD, RP2D and drug-related TEAEs (CTCAE v5.0)
Description: This is a multicenter, open-label, single-arm, non-randomized, phase I dose-escalation trial to evaluate the safety, tolerability, pharmacokinetic (PK), and anti-tumor activity of orally administered FCN-159 in adult patients with NF1 (NCT04954001). Phase I commenced with dose escalation in adult patients following a standard 3 + 3 design (Supplementary Table S1) to determine the maximum tolerated dose (MTD) of FCN-159 administered daily under fasting conditions (defined as no food or drink 1 h before and 2 h after each dose) in 28-day cycles. Study drug was dispensed at the study site and patient adherence was monitored by the records of drug dispensation and return. Patients were on treatment until PD, death, patient's voluntary withdrawal from study treatment, or study termination. The study was followed for 2 years after the last patient in. The starting dose was 4 mg, escalating in cohorts of at least three evaluable patients at 6 mg, 8 mg, and 12 mg until the MTD was determined. The starting dose in this study was determined based on available data from a phase 1a, first-in-human study of FCN-159 in patients with advanced NRAS ^mut+ melanoma at the time of study design. […] Dose expansion at a likely RP2D level enrolled approximately six patients. The highest dose level with a dose-limiting toxicity (DLT) incidence rate ≤ 33% (0/3 or 1/6 patients) was to be considered the MTD. If patients experienced grade ≥ 3 and/or unacceptable toxic events that were considered as at least possibly related to the study treatment, the study treatment was discontinued and supportive treatment was given in accordance with local treatment routines. If the toxicity returned to grade ≤ 2 within 28 days after the occurrence, and there was no progression on patients’ conditions or the investigator believed that patients could benefit from the study treatment, the original dose could be maintained or reduced after discussion with medical monitor. After completion of the dose escalation part of the study, PK, efficacy, safety, and tolerability data were analyzed to select the RP2D.
Primary endpoints of the study were the DLT incidence rate, MTD, and RP2D. Secondary endpoints included other safety assessments, imaging tumor response (complete response [CR], PR, stable disease [SD], or progressive disease [PD]), and PK parameters of FCN-159. Adverse events were graded per CTCAE v5.0.
All patients underwent a complete medical history, physical examination, Eastern Cooperative Oncology Group (ECOG) assessment, and laboratory analysis of test results. Drug-related TEAEs, serious adverse events (SAEs), TEAEs of grade ≥ 3 toxicity, and TEAEs leading to drug discontinuation were reviewed on an ongoing basis. Efficacy was assessed by radiologic scans and clinical assessment. Tumor assessments per Response Evaluation in Neurofibromatosis Schwannomatosis criteria were performed by investigators using MRI volumetric analysis every 4 cycles within the first 2 years (± 7 days) and every 6 cycles after 2 years (± 14 days) until PD, death, patient's voluntary withdrawal from study treatment, or study termination. MRI sequences of […], T1- and T2-weighted sequences were chosen and the software of Extended Brilliance Workspace, SIGNA Premier and uExceed were used for MRI volumetric analysis. The same software was used for all tumor assessments at baseline and subsequent assessed timepoints of the same patient. Pain was assessed by an 11-point numerical rating scale (NRS-11).
The sample size for the dose-escalation study was estimated to be 24 based on the 3 + 3 method. Safety was analyzed in patients who received at least one dose of FCN-159 and had at least one safety assessment. DLT was assessed in the DLT analysis set, defined as patients who were enrolled in the dose-escalation study and met the DLT evaluation criteria.

## Cn1c(=O)c(F)c(Nc2ccc(I)cc2F)c2c(=O)n(C3CC3)nc(-c3cccc(NS(=O)(=O)C4CC4)c3)c21 [FCN-159]
12 mg (N = 4)
  Drug-related TEAE: Urticaria: 1 (25.0) n (%)
  Drug-related TEAE: Vision blurred: 0 n (%)
  Drug-related TEAE: Visual acuity reduced: 0 n (%)
  Drug-related TEAE: pH urine decreased: 0 n (%)
  Drug-related TEAE: pH urine increased: 0 n (%)
  Subjects with any drug-related TEAE: 4 (100) n (%)
12 mg, 3 of 3 patients
  Patients with DLT (grade 3 folliculitis): 100%
Total (N = 19)
  Drug-related TEAE: Abdominal pain: 1 (5.3) n (%)
  Drug-related TEAE: Acne: 1 (5.3) n (%)
  Drug-related TEAE: Acne pustular: 1 (5.3) n (%)
  Drug-related TEAE: Alanine aminotransferase increased: 2 (10.5) n (%)
  Drug-related TEAE: Albumin globulin ratio decreased: 1 (5.3) n (%)
  Drug-related TEAE: Alopecia: 5 (26.3) n (%)
  Drug-related TEAE: Amylase increased: 1 (5.3) n (%)
  Drug-related TEAE: Anemia: 1 (5.3) n (%)
  Drug-related TEAE: Aortic dilatation: 1 (5.3) n (%)
  Drug-related TEAE: Aspartate aminotransferase increased: 2 (10.5) n (%)
  Drug-related TEAE: Asthenia: 1 (5.3) n (%)
  Drug-related TEAE: Beta globulin decreased: 1 (5.3) n (%)
  Drug-related TEAE: Beta globulin increased: 2 (10.5) n (%)
  Drug-related TEAE: Blood alkaline phosphatase increased: 6 (31.6) n (%)
  Drug-related TEAE: Blood bilirubin increased: 5 (26.3) n (%)
  Drug-related TEAE: Blood creatine phosphokinase increased: 3 (15.8) n (%)
  Drug-related TEAE: Blood fibrinogen increased: 4 (21.1) n (%)
  Drug-related TEAE: Blood lactate dehydrogenase increased: 4 (21.1) n (%)
  Drug-related TEAE: Blood pressure increased: 1 (5.3) n (%)
  Drug-related TEAE: Blood urea increased: 4 (21.1) n (%)
  Drug-related TEAE: Blood uric acid increased: 2 (10.5) n (%)
  Drug-related TEAE: Breath odor: 3 (15.8) n (%)
  Drug-related TEAE: Capillary disorder: 1 (5.3) n (%)
  Drug-related TEAE: Constipation: 3 (15.8) n (%)
  Drug-related TEAE: Decreased appetite: 1 (5.3) n (%)
  Drug-related TEAE: Dermatitis acneiform: 1 (5.3) n (%)
  Drug-related TEAE: Diarrhea: 1 (5.3) n (%)
  Drug-related TEAE: Drug eruption: 5 (26.3) n (%)
  Drug-related TEAE: Dyslipidemia: 2 (10.5) n (%)
  Drug-related TEAE: Ejection fraction decreased: 1 (5.3) n (%)
  Drug-related TEAE: Electrocardiogram QT prolonged: 1 (5.3) n (%)
  Drug-related TEAE: Electrocardiogram abnormal: 2 (10.5) n (%)
  Drug-related TEAE: Epistaxis: 2 (10.5) n (%)
  Drug-related TEAE: Folliculitis: 9 (47.4) n (%)
  Drug-related TEAE: Functional gastrointestinal disorder: 1 (5.3) n (%)
  Drug-related TEAE: Gamma-glutamyltransferase increased: 1 (5.3) n (%)
  Drug-related TEAE: Gingival pain: 1 (5.3) n (%)
  Drug-related TEAE: Hyperlipidemia: 1 (5.3) n (%)
  Drug-related TEAE: Hypertension: 1 (5.3) n (%)
  Drug-related TEAE: Hypoalbuminemia: 1 (5.3) n (%)
  Drug-related TEAE: Hypocalcemia: 2 (10.5) n (%)
  Drug-related TEAE: Hypophosphatemia: 1 (5.3) n (%)
  Drug-related TEAE: Hypoproteinemia: 1 (5.3) n (%)
  Drug-related TEAE: Immunoglobulins increased: 4 (21.1) n (%)
  Drug-related TEAE: Impetigo: 1 (5.3) n (%)
  Drug-related TEAE: Left atrial enlargement: 1 (5.3) n (%)
  Drug-related TEAE: Lipoprotein abnormal: 1 (5.3) n (%)
  Drug-related TEAE: Malaise: 1 (5.3) n (%)
  Drug-related TEAE: Menstrual disorder: 2 (10.5) n (%)
  Drug-related TEAE: Mitral valve incompetence: 4 (21.1) n (%)
  Drug-related TEAE: Mouth ulceration: 4 (21.1) n (%)
  Drug-related TEAE: Muscular weakness: 1 (5.3) n (%)
  Drug-related TEAE: Oedema peripheral: 1 (5.3) n (%)
  Drug-related TEAE: Pain in extremity: 1 (5.3) n (%)
  Drug-related TEAE: Paronychia: 6 (31.6) n (%)
  Drug-related TEAE: Prealbumin decreased: 1 (5.3) n (%)
  Drug-related TEAE: Protein urine present: 5 (26.3) n (%)
  Drug-related TEAE: Pruritus: 1 (5.3) n (%)
  Drug-related TEAE: QRS axis abnormal: 4 (21.1) n (%)
  Drug-related TEAE: Rash: 3 (15.8) n (%)
  Drug-related TEAE: Sinus arrhythmia: 1 (5.3) n (%)
  Drug-related TEAE: Sinus bradycardia: 1 (5.3) n (%)
  Drug-related TEAE: Sinusitis: 1 (5.3) n (%)
  Drug-related TEAE: Skin exfoliation: 1 (5.3) n (%)
  Drug-related TEAE: Specific gravity urine increased: 5 (26.3) n (%)
  Drug-related TEAE: Stomatitis: 7 (36.8) n (%)
  Drug-related TEAE: Supraventricular extrasystoles: 1 (5.3) n (%)
  Drug-related TEAE: Total bile acids increased: 3 (15.8) n (%)
  Drug-related TEAE: Tricuspid valve incompetence: 3 (15.8) n (%)
  Drug-related TEAE: Urinary occult blood positive: 3 (15.8) n (%)
  Drug-related TEAE: Urinary sediment present: 1 (5.3) n (%)
  Drug-related TEAE: Urinary tract infection: 1 (5.3) n (%)
  Drug-related TEAE: Urine ketone body present: 2 (10.5) n (%)
  Drug-related TEAE: Urobilinogen urine increased: 5 (26.3) n (%)
  Drug-related TEAE: Urticaria: 1 (5.3) n (%)
  Drug-related TEAE: Vision blurred: 1 (5.3) n (%)
  Drug-related TEAE: Visual acuity reduced: 1 (5.3) n (%)
  Drug-related TEAE: pH urine decreased: 3 (15.8) n (%)
  Drug-related TEAE: pH urine increased: 2 (10.5) n (%)
  Subjects with any drug-related TEAE: 19 (100) n (%)
All dose levels
  Patients with grade 3 drug-related folliculitis: five
  Patients with grade 3 drug-related paronychia: four
All dose levels, n = 19
  Patients with FCN-159-related TEAEs: 100%
All dose levels, nine of 19 patients
  Patients with grade 3 study-drug-related TEAEs: 47.4%
All patients, n = 1/19
  Blurred vision: 5.3%
  Reduced visual acuity: 5.3%
All patients, n = 4/19
  Drug-related TEAE mouth ulceration: 21.1%
All patients, n = 6/19
  Drug-related TEAE increased blood alkaline phosphatase: 31.6%
  Drug-related TEAE paronychia: 31.6%
All patients, n = 7/19
  Drug-related TEAE stomatitis: 36.8%
All patients, n = 9/19
  Drug-related TEAE folliculitis: 47.4%
All patients, twelve patients
  Drug-related gastrointestinal disorders: 63.2%
All patients, two patients
  Patients with eye disorders: 10.5%
daily
  Recommended phase II dose (RP2D): 8 mg
daily, 28-day cycles, fasting
  Maximum tolerated dose (MTD): 8 mg
In vivo
  Deaths during the study: No patients died
Mainly due to grade 3 paronychia and folliculitis
  Dose reduction: 42.1%
paronychia, 6 mg dose
  Grade 3 drug-related TEAE in patients receiving doses below the MTD: Only one
Rhegmatogenous retinal detachment, present at baseline, considered unrelated to the study drug
  SAE during treatment that led to drug withdrawal: One patient
